Results on 17 compounds are retold here after patent US20250136559A1, “SMO MODULATOR COMPOUNDS” (OMASS THERAPEUTICS LIMITED, priority 2022, published 2025).

Assay type in all cases: cell-based
Experiment [1] concerns the target T1, mouse SMO^WT (Mus musculus, UniProt P56726).
T1 construct: expressed in transfected cells
Put plainly: Mouse assay: Gli1 qPCR in MEF cells stably expressing mouse SMO WT. The settings on record: mSHh-treated, 24 hours; for IC50: Gli1 inhibition by qPCR, read-out: Mouse WT pIC50 (converted); for Mouse WT % Inh: percentage Gli1 inhibition. On the procedure: (§1) Cell culture. All materials were purchased from Sigma-Aldrich, unless otherwise stated.
(§2) Compound treatment. […] After 1 hour incubation, cells were treated with assay medium containing mSHh prepared at 2.5× of final assay concentrations specified in the text and incubated for a further 24 hours at 37′C in a humidified 95% air/5% CO2 atmosphere prior to qPCR analysis.
(§3) Cell lysis and one-step qPCR. The Cells-to-CT™ 1-Step TaqMan® Kit was used in conjunction with TaqMan primer-probe assays for the detection of Gli1 (FAM, Mm00494654_m1) and Gusb (VIC, Mm01197698_m1) genes (all purchased from Life Technologies). Following 24 hours cell treatment, spent medium was removed and cells were washed with PBS before the application of lysis and stop solution as per manufacturer's instructions. The qPCR reactions were run in a 384-well PCR plate using master mix prepared according to manufacturer's instructions and cell lysate samples from treatment wells. Real-time PCR amplification was detected using the Bio-Rad CFX384 Touch PCR system. Four experimental replicates (two cell replicates and two qPCR replicates) were performed for each compound concentration tested. Real-time data were analysed using the CFX Maestro software (Bio-Rad) and obtained expression values were converted to percentage Gli1 inhibition by normalising to the average Gli1 expression of mSHh-treated control samples.
(Real-time PCR tracks product formation cycle by cycle.)

The target of experiment [2] is T2, mouse SMO^D473H (Mus musculus, UniProt P56726, D477H).
T2 construct: expressed in transfected cells
Put plainly: Mouse assay: Gli1 qPCR in MEF cells stably expressing mouse SMO D473H. The conditions noted are these: mSHh-treated, 24 hours; for IC50: Gli1 inhibition by qPCR, read-out: Mouse D473H pIC50 (converted); for Mouse D473H % Inh: percentage Gli1 inhibition. On the procedure: as §1, §2, §3

The target of experiment [3] is T3, mouse SMO^W535L (Mus musculus, UniProt P56726, W539L).
T3 construct: expressed in transfected cells
Nature of the experiment: Mouse assay: Gli1 qPCR in MEF cells stably expressing mouse SMO W535L. The settings on record: mSHh-treated, 24 hours; for IC50: Gli1 inhibition by qPCR, read-out: Mouse W535L pIC50 (converted); for Mouse W535L % Inh: percentage Gli1 inhibition. On the procedure: as §1, §2, §3

T1 sequence (P56726 33-793): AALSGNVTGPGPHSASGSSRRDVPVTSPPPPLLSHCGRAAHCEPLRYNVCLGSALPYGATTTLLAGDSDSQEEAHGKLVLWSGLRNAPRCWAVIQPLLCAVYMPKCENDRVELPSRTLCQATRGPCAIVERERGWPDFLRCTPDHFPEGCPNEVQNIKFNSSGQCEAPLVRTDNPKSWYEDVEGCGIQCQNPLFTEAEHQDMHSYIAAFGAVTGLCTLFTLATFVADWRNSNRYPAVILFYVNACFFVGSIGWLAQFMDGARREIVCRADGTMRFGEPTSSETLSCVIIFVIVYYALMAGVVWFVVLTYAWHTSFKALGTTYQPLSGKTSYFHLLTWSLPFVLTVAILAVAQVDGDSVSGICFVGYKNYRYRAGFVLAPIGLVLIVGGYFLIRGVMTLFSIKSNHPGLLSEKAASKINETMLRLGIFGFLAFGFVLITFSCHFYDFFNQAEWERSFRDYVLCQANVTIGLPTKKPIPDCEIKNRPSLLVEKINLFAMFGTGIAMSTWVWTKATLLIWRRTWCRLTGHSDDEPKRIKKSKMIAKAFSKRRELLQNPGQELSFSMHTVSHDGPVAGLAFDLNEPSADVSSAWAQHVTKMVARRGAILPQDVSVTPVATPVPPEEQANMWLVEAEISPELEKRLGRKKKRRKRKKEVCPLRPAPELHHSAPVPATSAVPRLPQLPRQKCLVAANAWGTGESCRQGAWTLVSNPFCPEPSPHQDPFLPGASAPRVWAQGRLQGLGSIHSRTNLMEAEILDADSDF
T3 sequence (P56726 33-793 W539L): as the sequence (P56726 33-793) above, with W507L counted along it
T2 sequence (P56726 33-793 D477H): as the sequence (P56726 33-793) above, with D445H counted along it

With `O=C(Nc1ccc(-c2nc(Cc3cc4c(cc3Cl)OCO4)n[nH]2)cc1)c1cccc(CN2CCS(=O)(=O)CC2)c1` [Example 3-29, N-[4-[3-[(6-Chloro-1,3-benzodioxol-5-yl)methyl]-1H-1,2,4-triazol-5-yl]phenyl]-3-[(1,1-dioxo-1,4-thiazinan-4-yl)methyl]benzamide], in experiment [1], the IC50 was 25.1 nM and the “Mouse WT % Inh” value came to 99.1%. For the same compound, in experiment [2], the IC50 was 251 nM and the “Mouse D473H % Inh” value amounted to 98.9%. In experiment [3], the IC50 is 126 nM and the “Mouse W535L % Inh” value amounted to 64.8%.

As for `COc1ccc(Cc2n[nH]c(-c3ccc(NC(=O)c4cccc(CN5CCS(=O)(=O)CC5)c4)cc3)n2)cn1` [Example 3-30, 3-[(1,1-Dioxo-1,4-thiazinan-4-yl)methyl]-N-[4-[5-[(6-methoxypyridin-3-yl)methyl]-1H-1,2,4-triazol-3-yl]phenyl]benzamide], in experiment [1], the IC50 is 79.4 nM and the “Mouse WT % Inh” value worked out at 99.0%. In experiment [2], the IC50 is 631 nM and the “Mouse D473H % Inh” value is recorded as 98.4%. In addition, in experiment [3], the IC50 was 501 nM and the “Mouse W535L % Inh” value was 69.1%.

For `O=C(Nc1ccc(-c2nc(CCc3ccccc3)n[nH]2)cc1)c1cccc(CN2CCS(=O)(=O)CC2)c1` [Example 3-31, 3-[(1,1-Dioxo-1,4-thiazinan-4-yl)methyl]-N-[4-[3-(2-phenylethyl)-1H-1,2,4-triazol-5-yl]phenyl]benzamide], in experiment [1], the IC50 was 31.6 nM and the “Mouse WT % Inh” value is 98.6%. For the same compound, in experiment [2], the IC50 is 251 nM and the “Mouse D473H % Inh” value worked out at 97.2%. Besides, in experiment [3], the IC50 is 79.4 nM and the “Mouse W535L % Inh” value is recorded as 64.1%.

As for `Cc1nc(-c2ccc(NC(=O)c3cccc(CN4CCS(=O)(=O)CC4)c3)cc2)oc1C` [Example 4-1, N-[4-(4,5-Dimethyl-1,3-oxazol-2-yl)phenyl]-3-[(1,1-dioxo-1,4-thiazinan-4-yl)methyl]benzamide], in experiment [1], the IC50 was 6.31 nM and the “Mouse WT % Inh” value was determined as 99.2%. In addition, in experiment [2], the IC50 is 50.1 nM and the “Mouse D473H % Inh” value is recorded as 98.6%. Moreover, in experiment [3], the IC50 was 63.1 nM and the “Mouse W535L % Inh” value worked out at 78.6%.

Regarding `Cc1oc(-c2ccc(NC(=O)c3ccc(Cl)c(CN4CCS(=O)(=O)CC4)c3)cc2)nc1C1CC1` [Example 4-4, 4-Chloro-N-[4-(4-cyclopropyl-5-methyl-1,3-oxazol-2-yl)phenyl]-3-[(1,1-dioxo-1,4-thiazinan-4-yl)methyl]benzamide], in experiment [1], the IC50 was 0.2 nM and the “Mouse WT % Inh” value amounted to 99.5%. Also, in experiment [2], the IC50 is 3.16 nM and the “Mouse D473H % Inh” value is 98.5%. Further, in experiment [3], the IC50 is 12.6 nM and the “Mouse W535L % Inh” value is reported as 79.0%.

For `O=C(Nc1ccc(-c2cnc(C3CC3)o2)cc1)c1cccc(CN2CCS(=O)(=O)CC2)c1` [Example 4-5, N-[4-(2-Cyclopropyl-1,3-oxazol-5-yl)phenyl]-3-[(1,1-dioxo-1,4-thiazinan-4-yl)methyl]benzamide], in experiment [1], the IC50 was 7.94 nM and the “Mouse WT % Inh” value was determined as 99.9%. For the same compound, in experiment [2], the IC50 is 100 nM and the “Mouse D473H % Inh” value is reported as 99.7%. In addition, in experiment [3], the IC50 was 158 nM and the “Mouse W535L % Inh” value was 63.2%.

Turning to `O=C(Nc1ccc(-c2cc(C3CC3)no2)cc1)c1cccc(CN2CCS(=O)(=O)CC2)c1` [Example 4-6], in experiment [1], the IC50 is 12.6 nM and the “Mouse WT % Inh” value was determined as 99.0%. For the same compound, in experiment [2], the IC50 was 79.4 nM and the “Mouse D473H % Inh” value stood at 99.3%. Besides, in experiment [3], the IC50 was 126 nM and the “Mouse W535L % Inh” value is 76.9%.

`O=C(Nc1ccc(-c2cc(C3CC3)on2)cc1)c1cccc(CN2CCS(=O)(=O)CC2)c1` [Example 4-7, N-[4-(5-Cyclopropyl-1,2-oxazol-3-yl)phenyl]-3-[(1,1-dioxo-1,4-thiazinan-4-yl)methyl]benzamide]: in experiment [1], the IC50 is 2.51 nM and the “Mouse WT % Inh” value was 98.8%. Moreover, in experiment [2], the IC50 is 20 nM and the “Mouse D473H % Inh” value amounted to 99.3%. For the same compound, in experiment [3], the IC50 was 31.6 nM and the “Mouse W535L % Inh” value stood at 76.0%.

Consider `Cl.O=C(Nc1ccc(-c2nnc(C3CC3)o2)cc1)c1cccc(CN2CCS(=O)(=O)CC2)c1` [Example 4-8, N-[4-(5-Cyclopropyl-1,3,4-oxadiazol-2-yl)phenyl]-3-[(1,1-dioxo-1,4-thiazinan-4-yl)methyl]benzamide], for which, in experiment [1], the IC50 was 79.4 nM and the “Mouse WT % Inh” value was 98.9%. Also, in experiment [2], the IC50 is 794 nM and the “Mouse D473H % Inh” value turned out to be 94.9%. Also, in experiment [3], the IC50 was 501 nM and the “Mouse W535L % Inh” value came out at 65.9%.

Take `CN(C)c1nnc(-c2ccc(NC(=O)c3cccc(CN4CCS(=O)(=O)CC4)c3)cc2)o1` [Example 4-9, N-[4-[5-(Dimethylamino)-1,3,4-oxadiazol-2-yl]phenyl]-3-[(1,1-dioxo-1,4-thiazinan-4-yl)methyl]benzamide]: in experiment [1], the IC50 is 39.8 nM and the “Mouse WT % Inh” value amounted to 99.6%. In addition, in experiment [2], the IC50 was 316 nM and the “Mouse D473H % Inh” value is 99.1%. In addition, in experiment [3], the IC50 was 794 nM and the “Mouse W535L % Inh” value was 70.0%.

Take `Cl.O=C(Nc1ccc(-c2nc(C3CC3)no2)cc1)c1cccc(CN2CCS(=O)(=O)CC2)c1` [Example 4-11, N-[4-(3-Cyclopropyl-1,2,4-oxadiazol-5-yl)phenyl]-3-[(1,1-dioxo-1,4-thiazinan-4-yl)methyl]benzamide]: in experiment [1], the IC50 was 50.1 nM and the “Mouse WT % Inh” value turned out to be 99.7%. In experiment [2], the IC50 was 158 nM and the “Mouse D473H % Inh” value is 99.5%. Further, in experiment [3], the IC50 is 158 nM and the “Mouse W535L % Inh” value is given as 63.8%.

As for `Cl.O=C(Nc1ccc(-c2noc(C3CC3)n2)cc1)c1cccc(CN2CCS(=O)(=O)CC2)c1` [Example 4-12, N-[4-(5-Cyclopropyl-1,2,4-oxadiazol-3-yl)phenyl]-3-[(1,1-dioxo-1,4-thiazinan-4-yl)methyl]benzamide], in experiment [1], the IC50 was 10 nM and the “Mouse WT % Inh” value amounted to 99.6%. In experiment [2], the IC50 is 39.8 nM and the “Mouse D473H % Inh” value amounted to 99.8%. Moreover, in experiment [3], the IC50 was 158 nM and the “Mouse W535L % Inh” value is 57.8%.

As for `O=C(Nc1ccc(-c2noc(C3CCC3)n2)cc1)c1cccc(CN2CCS(=O)(=O)CC2)c1` [Example 4-13, N-[4-(5-Cyclobutyl-1,2,4-oxadiazol-3-yl)phenyl]-3-[(1,1-dioxo-1,4-thiazinan-4-yl)methyl]benzamide], in experiment [1], the IC50 is 50.1 nM and the “Mouse WT % Inh” value was determined as 98.8%. In experiment [2], the IC50 is 316 nM and the “Mouse D473H % Inh” value is listed as 99.0%. Also, in experiment [3], the IC50 is 501 nM and the “Mouse W535L % Inh” value is given as 77.4%.

Consider `O=C(Nc1ccc(-c2noc(C3CCCC3)n2)cc1)c1cccc(CN2CCS(=O)(=O)CC2)c1` [Example 4-14, N-[4-(5-Cyclopentyl-1,2,4-oxadiazol-3-yl)phenyl]-3-[(1,1-dioxo-1,4-thiazinan-4-yl)methyl]benzamide], for which, in experiment [1], the IC50 is 10 nM and the “Mouse WT % Inh” value was 98.2%. For the same compound, in experiment [2], the IC50 was 200 nM and the “Mouse D473H % Inh” value amounted to 99.1%. Further, in experiment [3], the IC50 was 794 nM and the “Mouse W535L % Inh” value worked out at 74.2%.

As to `O=C(Nc1ccc(-c2noc(Cc3ccccc3)n2)cc1)c1cccc(CN2CCS(=O)(=O)CC2)c1` [Example 4-15, N-[4-(5-Benzyl-1,2,4-oxadiazol-3-yl)phenyl]-3-[(1,1-dioxo-1,4-thiazinan-4-yl)methyl]benzamide], in experiment [1], the IC50 was 6.31 nM and the “Mouse WT % Inh” value is 99.0%. For the same compound, in experiment [2], the IC50 is 31.6 nM and the “Mouse D473H % Inh” value was found to be 99.4%. Besides, in experiment [3], the IC50 is 31.6 nM and the “Mouse W535L % Inh” value stood at 82.0%.

As to `Cc1ccc(Cc2nc(-c3ccc(NC(=O)c4cccc(CN5CCS(=O)(=O)CC5)c4)cc3)no2)cc1` [Example 4-16, 3-[(1,1-Dioxo-1,4-thiazinan-4-yl)methyl]-N-[4-[5-[(4-methylphenyl)methyl]-1,2,4-oxadiazol-3-yl]phenyl]benzamide], in experiment [1], the IC50 is 2 nM and the “Mouse WT % Inh” value was 97.5%. In experiment [2], the IC50 is 12.6 nM and the “Mouse D473H % Inh” value is 98.8%. In addition, in experiment [3], the IC50 was 20 nM and the “Mouse W535L % Inh” value was 72.5%.

Take `O=C(Nc1ccc(-c2noc(Cc3ccc(Cl)cc3)n2)cc1)c1cccc(CN2CCS(=O)(=O)CC2)c1` [Example 4-18, N-[4-[5-[(4-Chlorophenyl)methyl]-1,2,4-oxadiazol-3-yl]phenyl]-3-[(1,1-dioxo-1,4-thiazinan-4-yl)methyl]benzamide]: in experiment [1], the IC50 was 2.51 nM and the “Mouse WT % Inh” value was 98.7%. Also, in experiment [2], the IC50 is 15.8 nM and the “Mouse D473H % Inh” value came to 99.2%. Also, in experiment [3], the IC50 is 39.8 nM and the “Mouse W535L % Inh” value was determined as 82.7%.
